Experimental findings from US7709516B2, “Helix 12 directed non-steroidal antiandrogens” (Endorecherche, Inc., priority 2005, dated 2010) are described below.

As a reminder, the IC50 is the midpoint of a concentration-inhibition curve.

Experiment [1] relates to Shionogi mouse mammary carcinoma cells. Nature of the experiment: Androgenic/antiandrogenic activity: inhibition of DHT-stimulated Shionogi cell number. The format is cell-based. To be noted: DHT-stimulated Shionogi cell number.
The target of experiment [2] is T1, Human Androgen Receptor (Homo sapiens, UniProt P10275).
T1 sequence (P10275 1-920): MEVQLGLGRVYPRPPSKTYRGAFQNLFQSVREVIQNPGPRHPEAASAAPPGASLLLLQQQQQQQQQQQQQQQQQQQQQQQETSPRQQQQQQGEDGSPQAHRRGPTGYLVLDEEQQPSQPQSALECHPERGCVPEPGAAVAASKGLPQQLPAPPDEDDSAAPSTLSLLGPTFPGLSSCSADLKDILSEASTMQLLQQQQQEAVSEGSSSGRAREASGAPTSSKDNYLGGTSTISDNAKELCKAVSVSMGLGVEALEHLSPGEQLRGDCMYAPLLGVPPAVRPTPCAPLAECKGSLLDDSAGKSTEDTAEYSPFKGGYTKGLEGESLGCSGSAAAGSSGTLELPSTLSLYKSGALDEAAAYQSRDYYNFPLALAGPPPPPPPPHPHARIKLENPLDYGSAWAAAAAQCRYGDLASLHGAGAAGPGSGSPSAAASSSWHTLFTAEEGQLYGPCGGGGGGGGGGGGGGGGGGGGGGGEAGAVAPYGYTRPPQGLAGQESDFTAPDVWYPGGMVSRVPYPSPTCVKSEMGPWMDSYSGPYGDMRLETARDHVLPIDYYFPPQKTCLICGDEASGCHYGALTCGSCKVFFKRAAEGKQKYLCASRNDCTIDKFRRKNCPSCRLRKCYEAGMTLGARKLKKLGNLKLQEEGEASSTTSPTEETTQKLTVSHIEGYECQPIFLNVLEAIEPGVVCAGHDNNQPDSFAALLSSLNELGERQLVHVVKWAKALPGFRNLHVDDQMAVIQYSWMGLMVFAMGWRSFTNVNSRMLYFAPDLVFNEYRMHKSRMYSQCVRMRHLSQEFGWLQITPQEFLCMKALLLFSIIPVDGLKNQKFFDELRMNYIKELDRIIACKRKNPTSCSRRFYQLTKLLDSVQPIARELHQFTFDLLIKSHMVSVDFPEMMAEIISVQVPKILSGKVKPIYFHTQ
Nature of the experiment: Androgen receptor binding assay ([3H]R1881, HAP) in cytosol of HEK-293 cells transfected with hAR. The following applies: relative to R1881 = 100, transfected cells.

Experiment [3] has as its system rat prostate, seminal vesicle, levator ani muscle. Description: Systemic antiandrogenic activity in orchidectomized immature male rats with DHT implant. The following applies: Rattus norvegicus, 168 h, rat +DHT, 0.5 mg/animal daily 7 days. The format is in vivo.
Experiment [4] shares this test system. Nature of the experiment: Systemic androgenic activity in orchidectomized immature male rats. The following applies: for change in vivo at 0.2 mg: po, 168 h, 0.2 mg/animal daily 7 days. It is filed as in vivo. The text has this:
Column 7 represents the % of androgenic efficacy in rat prostate, expressed in percentage of stimulation:
W is the weight of the prostate.
Column 8 represents the % of androgenic efficacy in rat seminal vesicle, expressed in percentage of stimulation:
W is the weight of the seminal vesicle.
Column 9 represents the % of androgenic efficacy in rat levator ani muscle, expressed in percentage of stimulation: […]
Immature male rats (Crl:CD(SD)Br) 22 to 24-day old were obtained from Charles-River, Inc. (St-Constant, Quebec, Canada) and housed up to 5 per cage in plastic bins in a temperature (23±1° C.)— and light (12 h light/day, lights on at 7h15)— controlled environment. The rats were fed rodent chow and tap water ad libitum. The day following their arrival, the animals were orchidectomized (CX) under Isoflurane anesthesia via scrotal route and randomly assigned to groups of 5 animals.
To evaluate the antiandrogenic activity, tested compounds were administered subcutaneously or orally once daily at a dose of 0.5 mg/animal for antiandrogenitic activity or 0.2 mg/animal for androgenic activity for 7 days (SD 1 to 7). Compounds were solubilized (when possible) in dimethylsulfoxide (DMSO, 10% final concentration) and administered as suspension in 0.4% methylcellulose. […] One group of animals received the antiandrogen Flutamide as reference. The animals were killed by cervical dislocation under isoflurane anesthesia on the 8th morning following castration. The ventral prostate and seminal vesicles were rapidly dissected and weighed.
3. Calculations and Statistical Analysis
W is the weight of the prostate, the seminal vesicle or levator ani.

The mark [5] stands for this setting: Mus musculus, read-out: Shionogi Antiandrogenic Activity IC50, Table 1.
The mark [6] stands for this setting: Prostate cell, po, read-out: Lev Ani % inhibition, Table 1, p.o, levator ani.
[7] abbreviates: Prostate cell, po, read-out: SV % inhibition, Table 1, p.o, seminal vesicle.
Where [8] appears, read: po, read-out: Prostate % inhibition, Table 1, p.o.
Where [9] appears, read: Mus musculus, read-out: Shionogi Antiandrogenic Activity IC50, Table 2.
Setting [10] is: read-out: Lev Ani % inhibition, Table 2, s.c. or p.o. (route not marked), levator ani.
Setting [11] is: read-out: Prostate % inhibition, Table 2, s.c. or p.o. (route not marked).
The mark [12] stands for this setting: read-out: SV % inhibition, Table 2, s.c. or p.o. (route not marked), seminal vesicle.
The mark [13] stands for this setting: Table 3, agonist reported when compound stimulates the cells.
Setting [14] is: Table 3, p.o (marked in prostate cell), read-out: % Stimulation Lev.Ani.
Setting [15] is: Table 3, p.o (marked in prostate cell), read-out: % Stimulation SV.
Where [16] appears, read: Table 3, p.o, read-out: % Stimulation Prostate.
The mark [17] stands for this setting: Table 3, s.c. or p.o (route not marked).

Each structure is given as a SMILES string. Read-outs that look alike come from different tables or passages of the source. Where only a bound is given, the exact number is not on record here.

As to `CCCS(=O)(=O)c1ccc(OCCCN2C(=S)N(c3ccc(C#N)c(C(F)(F)F)c3)C(=O)C2(C)C)cc1` [EM-8225], the IC50 in experiment [1] (setting [5]) is 22.4 nM. In addition, the “Human Androgen Receptor Binding (%) RBA R1881 = 100” value in experiment [2] (Table 1) was determined as 25.8%. Besides, the inhibition in vivo at 0.5 mg worked out at 53% in experiment [3] (setting [6]), 79% in experiment [3] (setting [7]) and 45% in experiment [3] (setting [8]).
For `CC(C)S(=O)(=O)c1ccc(OCCC2(O)CCN(c3ccc(C#N)c(C(F)(F)F)c3)CC2)cc1` [EM-8228], in experiment [1] (setting [9]), the IC50 was determined as 45.1 nM. Further, the “Human Androgen Receptor Binding (%) RBA R1881 = 100” value in experiment [2] (Table 2) is on record as under 1.0%. Also, the inhibition in vivo at 0.5 mg in experiment [3] (setting [10]) stood at 55%; in experiment [3] (setting [11]), 32%; in experiment [3] (setting [12]) it was 0%.
Taken in the same sequence, the figures for `CCCS(=O)(=O)c1ccc(OCCC2(O)CCN(c3ccc(C#N)c(C(F)(F)F)c3)CC2)cc1` [EM-8229] were 49.8 nM, under 1.0%, 16%, 3% and 19%.
For `CCS(=O)(=O)c1ccc(OCCC2(O)CCN(c3ccc(C#N)c(C(F)(F)F)c3)CC2)cc1` [EM-8230], the IC50 in experiment [1] (setting [9]) amounted to 75.9 nM. Besides, in experiment [2] (Table 2), the “Human Androgen Receptor Binding (%) RBA R1881 = 100” value was under 1.0%. Moreover, the results for the inhibition in vivo at 0.5 mg in experiment [3] (setting [10]), in experiment [3] (setting [11]) and in experiment [3] (setting [12]) were 35%, 0% and 23%, respectively.
As to `Cc1cc(=O)oc2ccc(OCCCN3C(=S)N(c4ccc(C#N)c(C(F)(F)F)c4)C(=O)C3(C)C)cc12` [EM-8259], in experiment [1] (setting [5]), the IC50 was 13.6 nM. Further, the “Human Androgen Receptor Binding (%) RBA R1881 = 100” value in experiment [2] (Table 1) was determined as 39.6%. Also, the figures for the inhibition in vivo at 0.5 mg in experiment [3] (setting [6]), in experiment [3] (setting [7]) and in experiment [3] (setting [8]) were 53%, 53% and 31%, respectively.
As to `N#Cc1ccc(N2CCC(O)(CCOc3ccc4oc(=O)ccc4c3)CC2)cc1C(F)(F)F` [EM-8284], the half-maximal inhibitory concentration (IC50) in experiment [1] (setting [9]) came to 12.8 nM. In experiment [2] (Table 2), the “Human Androgen Receptor Binding (%) RBA R1881 = 100” value is given as under 1.0%. In addition, the inhibition in vivo at 0.5 mg in experiment [3] (setting [10]) amounted to 21%; in experiment [3] (setting [11]), 0%; in experiment [3] (setting [12]), 0%.
`Cc1cc(=O)oc2ccc(OCCC3(O)CCN(c4ccc(C#N)c(C(F)(F)F)c4)CC3)cc12` [EM-8285]: in experiment [1] (setting [9]), the IC50 came out at 18.3 nM. The “Human Androgen Receptor Binding (%) RBA R1881 = 100” value in experiment [2] (Table 2) was under 1.0%. Besides, the inhibition in vivo at 0.5 mg in experiment [3] (setting [10]), in experiment [3] (setting [11]) and in experiment [3] (setting [12]) was 0% each time.
Take `Cc1cc(=O)oc2cc(OCCCN3C(=S)N(c4ccc(C#N)c(C(F)(F)F)c4)C(=O)C3(C)C)ccc12` [EM-8329]: in experiment [1] (setting [5]), the IC50 amounted to 9.1 nM. Also, the “Human Androgen Receptor Binding (%) RBA R1881 = 100” value in experiment [2] (Table 1) is on record as 170.0%. Also, the inhibition in vivo at 0.5 mg in experiment [3] (setting [6]) was determined as 17%; in experiment [3] (setting [7]), 58%; in experiment [3] (setting [8]), 42%.
Taken in the same sequence, the figures for `CC1(C)C(=O)N(c2ccc(C#N)c(C(F)(F)F)c2)C(=S)N1CCCOc1ccc(SC(F)(F)F)cc1` [EM-8342] were 66.7 nM, 0.5%, 53%, 79% and 43%.
Taken in the same sequence, the figures for `CC1(C)C(=O)N(c2ccc(C#N)c(C(F)(F)F)c2)C(=S)N1CCCOc1ccc(CN2CCSCC2)cc1` [EM-8344] were 12.6 nM, 161.6%, 51%, 77% and 50%.
Consider `CCC(c1ccc(OCCCN2C(=S)N(c3ccc(C#N)c(Cl)c3C)C(=O)C2(C)C)cc1)N(C)C` (stereo not drawn) [EM-8345], for which the “Shionogi Antiandrogenic Activity IC50” value in experiment [1] (setting [13]) was “Partial agonist”. Moreover, the “Human Androgen Receptor Binding (%) RBA R1881 = 100” value in experiment [2] (Table 3) amounted to 68%. Also, the change in vivo at 0.2 mg in experiment [4] (setting [14]) was 77%; in experiment [4] (setting [15]) it was 18%; in experiment [4] (setting [16]) it was 42%.
The matching figures for `Cc1c(N2C(=O)C(C)(C)N(CCCOc3ccc(-n4ccnc4)cc3)C2=S)ccc(C#N)c1Cl` [EM-8346]: “Partial agonist”, 125%, 128%, 40% and 47%.
Take `CC1(C)C(=O)N(c2ccc(C#N)c(Cl)c2)C(=S)N1CCCOc1ccc(S(C)(=O)=O)cc1` [EM-8360]: the IC50 in experiment [1] (setting [5]) turned out to be 7.1 nM. The “Human Androgen Receptor Binding (%) RBA R1881 = 100” value in experiment [2] (Table 1) amounted to 18.1%. Also, the inhibition in vivo at 0.5 mg in experiment [3] (setting [6]) was found to be 82%; in experiment [3] (setting [7]), 88%; in experiment [3] (setting [8]), 56%.
For the molecule `CC(=O)Nc1ccc(OCCCN2C(=S)N(c3ccc(C#N)c(Cl)c3C)C(=O)C2(C)C)cc1` [EM-8362], in experiment [1] (setting [13]), the “Shionogi Antiandrogenic Activity IC50” value is on record as “Partial agonist”. In addition, the “Human Androgen Receptor Binding (%) RBA R1881 = 100” value in experiment [2] (Table 3) was determined as 66%. The change in vivo at 0.2 mg in experiment [4] (setting [14]) was determined as 105%; in experiment [4] (setting [15]) it was 43%; in experiment [4] (setting [16]), 33%.
On to `Cc1cc2c(C)c(C)c(=O)oc2cc1OCCCN1C(=S)N(c2ccc(C#N)c(C(F)(F)F)c2)C(=O)C1(C)C` [EM-8385], for which the “Shionogi Antiandrogenic Activity IC50” value in experiment [1] (Table 1) is listed as “Partial agonist”. The “Human Androgen Receptor Binding (%) RBA R1881 = 100” value in experiment [2] (Table 1) is 50.5%. Besides, the values for the inhibition in vivo at 0.5 mg in experiment [3] (setting [6]), in experiment [3] (setting [7]) and in experiment [3] (setting [8]) were 20%, 41% and 17%, respectively.
Consider `CC1(C)C(=O)N(c2ccc(C#N)c(C(F)(F)F)c2)C(=S)N1CCCOc1ccc2c(C(F)(F)F)cc(=O)oc2c1` [EM-8393], for which the IC50 in experiment [1] (setting [5]) was found to be 44.5 nM. The “Human Androgen Receptor Binding (%) RBA R1881 = 100” value in experiment [2] (Table 1) came out at 7.7%. In addition, the inhibition in vivo at 0.5 mg was 35% in experiment [3] (setting [6]), 60% in experiment [3] (setting [7]) and 3% in experiment [3] (setting [8]).
For `C[C@]12CC[C@H]3[C@@H](CCC4=CC(=O)CC[C@@]43C)[C@@H]1CC[C@@H]2O` [Testo, reference compound], the IC50 in experiment [1] (Table 3, agonist reported when compound stimulates the cells, read-out: Shionogi Antiandrogenic Activity IC50) is 23 to 107 nM. In addition, in experiment [4] (setting [17]), the “% Stimulation Lev.Ani” value worked out at 171%, the “% Stimulation Prostate” value came out at 99% and the “% Stimulation SV” value is reported as 115%.
